Our source for the IC50 values is ChEMBL document CHEMBL1155421, “Evaluation of a 4-aminopiperidine replacement in several series of CCR5 antagonists” (Bioorg Med Chem Lett, 2010).

Molecules are shown by their SMILES.

In test [1] the test system is Human immunodeficiency virus 1. Briefly: Antiviral activity against HIV1 NLBal infected JC53BL cells assessed as inhibition of replication by luciferase reporter assay. The conditions noted are these: Human immunodeficiency virus 1, NLBal. The class given is functional, organism-based. In general terms: A reporter such as luciferase makes a cellular process visible.

For test [2], the target named is C-C chemokine receptor type 5 (Homo sapiens, UniProt P51681). Briefly: Displacement of […] from CCR5 receptor receptors expressed in CHO cells. The class given is cell-based.
Sequence of C-C chemokine receptor type 5 (P51681 whole entry): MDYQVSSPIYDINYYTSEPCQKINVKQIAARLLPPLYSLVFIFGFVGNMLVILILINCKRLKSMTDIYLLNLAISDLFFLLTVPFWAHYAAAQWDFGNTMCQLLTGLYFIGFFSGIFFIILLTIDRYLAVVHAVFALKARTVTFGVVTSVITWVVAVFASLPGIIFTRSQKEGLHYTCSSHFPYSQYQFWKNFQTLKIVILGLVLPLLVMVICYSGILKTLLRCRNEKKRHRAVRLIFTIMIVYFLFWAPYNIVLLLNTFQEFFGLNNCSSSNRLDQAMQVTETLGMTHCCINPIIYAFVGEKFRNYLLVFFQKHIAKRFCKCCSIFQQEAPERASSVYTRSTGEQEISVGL

As for `CCO[C@H]1Cc2cc(C(F)(F)F)ccc2[C@@H]1N1CCN(C2C[C@@H]3CN(C(=O)c4c(C)cc(C#N)nc4C)C[C@@H]3C2)C[C@@H]1C` (some centres undefined), the IC50 – broadly, the concentration at which inhibition is half-maximal – in test [1] came out at 59 nM; in test [2] it was 45 nM.

As to `CCCC[C@H]1CN(C[C@H]2CC[C@H](OCC)CC2)C(=O)OC12CCN(C1C[C@@H]3CN(C(=O)c4c(C)ncnc4C)C[C@@H]3C1)CC2` (some centres undefined), the figures for the IC50 in test [1] and in test [2] were 19 nM and 44 nM, respectively.

Take `COC[C@@H](c1ccc(C(F)(F)F)cc1)N1CCN(C2C[C@@H]3CN(C(=O)c4c(C)ccnc4C)C[C@@H]3C2)C[C@@H]1C` (some centres undefined): the IC50 was above 625 nM in test [1] and above 500 nM in test [2].

Take `CCCC[C@H]1CN(CC2CCOCC2)C(=O)OC12CCN(C1C[C@@H]3CN(C(=O)c4c(C)cc(C#N)nc4C)C[C@@H]3C1)CC2` (some centres undefined): the IC50 amounted to 9 nM in test [1] and 15 nM in test [2].

With `CCCC[C@H]1CN(CC2CCOCC2)C(=O)OC12CCN(C1(C)CCN(C(=O)c3c(C)ncnc3C)CC1)CC2`, the IC50 in test [2] worked out at 4 nM.

As for `CCO[C@H]1Cc2cc(C(F)(F)F)ccc2[C@@H]1N1CCN(C2C[C@@H]3CN(C(=O)c4c(C)ncnc4C)C[C@@H]3C2)C[C@@H]1C` (some centres undefined), the IC50 is above 625 nM in test [1] and 92 nM in test [2].

For `CCCC[C@H]1CN(C[C@H]2CC[C@H](OCC)CC2)C(=O)OC12CCN(C1C[C@@H]3CN(C(=O)c4c(C)ccnc4C)C[C@@H]3C1)CC2` (some centres undefined), the IC50 in test [1] worked out at 4 nM; in test [2], 34 nM.

For `CCCC[C@H]1CN(CC2CCOCC2)C(=O)OC12CCN(C1(C)C[C@H]3CN(C(=O)c4c(C)ncnc4C)C[C@H]3C1)CC2` (some centres undefined), the IC50 in test [1] was at least 625 nM; in test [2], 25 nM.

As to `COC[C@@H](c1ccc(C(F)(F)F)cc1)N1CCN(C2C[C@@H]3CN(C(=O)c4c(C)cc(C#N)nc4C)C[C@@H]3C2)C[C@@H]1C` (some centres undefined), the results for the IC50 in test [1] and in test [2] were above 625 nM and above 500 nM, respectively.

Regarding `CCCC[C@H]1CN(C[C@H]2CC[C@H](OC3CC3)CC2)C(=O)OC12CCN(C1C[C@@H]3CN(C(=O)c4c(C)ncnc4C)C[C@@H]3C1)CC2` (some centres undefined), the figures for the IC50 in test [1] and in test [2] were 12 nM and 27 nM, respectively.

With `CCCC[C@H]1CN(C[C@H]2CC[C@H](OC(C)C)CC2)C(=O)OC12CCN(C1C[C@@H]3CN(C(=O)c4c(C)ncnc4C)C[C@@H]3C1)CC2` (some centres undefined), the IC50 came out at 12 nM in test [1] and 23 nM in test [2].

In the case of `COC[C@@H](c1ccc(C(F)(F)F)cc1)N1CCN(C2C[C@@H]3CN(C(=O)c4c(C)ncnc4C)C[C@@H]3C2)C[C@@H]1C` (some centres undefined), the IC50 in test [1] is above 625 nM; in test [2], above 500 nM.

`CCCC[C@H]1CN(CC2CCOCC2)C(=O)OC12CCN(C1(C)C[C@H]3CN(C(=O)c4c(C)cc(C#N)nc4C)C[C@H]3C1)CC2` (some centres undefined): the IC50 in test [1] turned out to be 18 nM; in test [2], 61 nM.

Take `CCCC[C@H]1CN(CC2CCOCC2)C(=O)OC12CCN(C1C[C@@H]3CN(C(=O)c4c(C)ncnc4C)C[C@@H]3C1)CC2` (some centres undefined): the IC50 turned out to be 262 nM in test [1] and 14 nM in test [2].

Turning to `CCO[C@H]1Cc2cc(C(F)(F)F)ccc2[C@@H]1N1CCN(C2C[C@@H]3CN(C(=O)c4c(C)ccnc4C)C[C@@H]3C2)C[C@@H]1C` (some centres undefined), the IC50 was found to be 357 nM in test [1] and 98 nM in test [2].
